Data set [1] has as its system UGT. As to the kind of experiment: Metabolic stability in CD-1 mouse liver S9 fraction assessed as UGT-mediated glucuronidation of compound by measuring compound remaining at 5 uM preincubated for 3 mins followed by UDPGA addition measured after 60 mins by HPLC/MS analysis. Format: ADME. The note with it: read-out: Stability.
The target in data set [2] is T1, NADPH--cytochrome P450 reductase (Mus musculus, UniProt P37040).
T1 sequence (P37040 whole entry): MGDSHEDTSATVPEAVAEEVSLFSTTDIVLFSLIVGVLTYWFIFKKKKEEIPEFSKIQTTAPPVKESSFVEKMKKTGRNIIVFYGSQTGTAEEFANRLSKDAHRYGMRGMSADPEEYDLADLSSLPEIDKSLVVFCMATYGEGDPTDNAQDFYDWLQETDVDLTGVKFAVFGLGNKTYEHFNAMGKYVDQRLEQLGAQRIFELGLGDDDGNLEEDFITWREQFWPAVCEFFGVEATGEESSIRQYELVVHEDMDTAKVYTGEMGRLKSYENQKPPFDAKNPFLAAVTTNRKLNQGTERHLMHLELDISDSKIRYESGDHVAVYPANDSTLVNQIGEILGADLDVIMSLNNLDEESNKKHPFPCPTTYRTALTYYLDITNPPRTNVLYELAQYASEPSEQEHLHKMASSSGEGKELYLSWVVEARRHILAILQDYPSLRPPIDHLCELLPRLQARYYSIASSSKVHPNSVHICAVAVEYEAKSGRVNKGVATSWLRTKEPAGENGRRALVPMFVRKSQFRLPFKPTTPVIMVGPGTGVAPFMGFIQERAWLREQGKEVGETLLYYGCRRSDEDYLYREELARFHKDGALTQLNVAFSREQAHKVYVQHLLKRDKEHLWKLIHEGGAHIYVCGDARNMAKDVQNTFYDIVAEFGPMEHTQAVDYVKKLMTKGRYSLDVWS
As to the kind of experiment: Metabolic stability in CD-1 mouse liver S9 fraction assessed as NADPH CYP450 reductase-mediated compound metabolism by measuring compound remaining in presence of NADPH at 20 uM after 30 mins by HPLC method. The data set is classed as ADME. The following applies: read-out: Stability.

The target in data set [3] is T2, NADPH--cytochrome P450 reductase (Rattus norvegicus, UniProt P00388).
T2 sequence (P00388 whole entry): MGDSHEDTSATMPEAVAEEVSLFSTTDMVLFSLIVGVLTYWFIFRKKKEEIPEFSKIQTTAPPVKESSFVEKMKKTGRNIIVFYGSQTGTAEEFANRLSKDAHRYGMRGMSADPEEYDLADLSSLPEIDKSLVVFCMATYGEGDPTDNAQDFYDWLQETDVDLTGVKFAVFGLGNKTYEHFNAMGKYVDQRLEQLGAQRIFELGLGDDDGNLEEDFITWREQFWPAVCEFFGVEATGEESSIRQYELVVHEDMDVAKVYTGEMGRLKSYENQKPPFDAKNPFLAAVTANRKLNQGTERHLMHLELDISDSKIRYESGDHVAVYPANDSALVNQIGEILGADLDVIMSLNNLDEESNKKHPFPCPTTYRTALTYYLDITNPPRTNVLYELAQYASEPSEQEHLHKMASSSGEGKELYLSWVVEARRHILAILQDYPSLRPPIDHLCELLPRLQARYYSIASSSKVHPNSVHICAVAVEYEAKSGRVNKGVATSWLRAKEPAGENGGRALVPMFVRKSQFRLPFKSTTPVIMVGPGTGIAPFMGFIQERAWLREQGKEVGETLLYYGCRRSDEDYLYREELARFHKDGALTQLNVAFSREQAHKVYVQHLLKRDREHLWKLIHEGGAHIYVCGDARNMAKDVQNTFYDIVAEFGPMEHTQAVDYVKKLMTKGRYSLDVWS
As to the kind of experiment: Metabolic stability in rat liver microsomes assessed as NADPH CYP450 reductase-mediated compound metabolism by measuring compound remaining in presence of NADPH at 20 uM after 30 mins by HPLC. Format: ADME. The note with it: read-out: Stability.

Data set [4] concerns the target T2, NADPH--cytochrome P450 reductase. Description: Metabolic stability in rat liver S9 fraction assessed as NADPH CYP450 reductase-mediated compound metabolism by measuring compound remaining in presence of NADPH at 20 uM after 30 mins by HPLC method. The data set is classed as ADME. The note with it: read-out: Stability.
The subject of data set [5] is UGT. As to the kind of experiment: Metabolic stability in Wistar rat liver S9 fraction assessed as UGT-mediated glucuronidation of compound by measuring compound remaining at 5 uM preincubated for 3 mins followed by UDPGA addition measured after 60 mins by HPLC/MS analysis. Format: ADME. The following applies: read-out: Stability.
Data set [6] can be described thus: Thermodynamic solubility of the compound in phosphate buffer at pH 7.4 at 1 mg sonicated for 10 mins measured after 20 hrs by reverse phase HPLC analysis. The following applies: read-out: Therm_solubility. Format: physicochemical.
For data set [7], the target named is T3, Cytosolic phospholipase A2 (Homo sapiens, UniProt P47712).
T3 sequence (P47712 whole entry): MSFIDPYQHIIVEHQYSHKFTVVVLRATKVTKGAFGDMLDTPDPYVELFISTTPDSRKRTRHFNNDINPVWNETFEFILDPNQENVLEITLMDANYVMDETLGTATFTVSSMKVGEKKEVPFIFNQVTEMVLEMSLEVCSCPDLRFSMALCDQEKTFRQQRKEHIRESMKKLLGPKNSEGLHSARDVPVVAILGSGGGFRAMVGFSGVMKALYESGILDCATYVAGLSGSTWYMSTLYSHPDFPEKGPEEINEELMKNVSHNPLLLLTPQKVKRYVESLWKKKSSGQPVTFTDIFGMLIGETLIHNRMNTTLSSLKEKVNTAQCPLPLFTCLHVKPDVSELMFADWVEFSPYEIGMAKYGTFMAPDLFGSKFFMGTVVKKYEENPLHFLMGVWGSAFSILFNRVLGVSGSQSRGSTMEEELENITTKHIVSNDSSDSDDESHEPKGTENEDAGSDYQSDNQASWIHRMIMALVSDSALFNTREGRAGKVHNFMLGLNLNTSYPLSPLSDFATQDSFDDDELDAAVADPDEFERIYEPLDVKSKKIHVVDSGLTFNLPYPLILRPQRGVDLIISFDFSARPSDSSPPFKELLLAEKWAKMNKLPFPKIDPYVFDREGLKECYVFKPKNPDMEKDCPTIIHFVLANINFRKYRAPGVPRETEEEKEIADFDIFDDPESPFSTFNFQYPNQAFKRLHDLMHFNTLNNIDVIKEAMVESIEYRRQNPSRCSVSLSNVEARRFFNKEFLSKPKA
Description: Inhibition of human platelet cytosolic phospholipase alpha-2 using 1-stearoyl-2-arachidonoyl-sn-glycero-3-phosphocholine/1,2-dioleoyl-sn-glycerol as substrate after 60 mins by UV-HPLC method.

SMILES strings stand for the structures. pIC50: −log10 of the molar value. Converted amounts (≈) assume the structure as drawn.

For the compound `CCCCCCCCc1ccc(OCC(=O)Cn2cc(C(=O)CCCCC)c3cc(C(=O)O)ccc32)cc1`, the remaining at 1 h, 5 µM amounted to 78% in the data set with UGT [1] and 83% in the data set with UGT [5]. Further, the values for the remaining at 0.5 h, 20 µM in data set [2], in data set [3] and in data set [4] were 86%, 93% and 100%, respectively.
For `CCCCCCCCc1ccc(OCC(=O)Cn2cc(C(=O)CCCCCO)c3cc(C(=O)O)ccc32)cc1`, the values for the remaining at 1 h, 5 µM in the data set with UGT [1] and in the data set on UGT [5] were 27% and 43%, respectively. In addition, the results for the remaining at 0.5 h, 20 µM in data set [2], in data set [3] and in data set [4] were 78%, 86% and 72%, respectively. Also, the solubility thermodynamic at 20 h in data set [6] worked out at 422 µg/mL (≈ 788 µM). This compound showed a pIC50 in data set [7] of 7.51.
On to `COc1ccc2c(c1)c(CC(=O)O)c(C)n2C(=O)c1ccc(Cl)cc1` [INDOMETHACIN], for which the solubility thermodynamic at 20 h in data set [6] came to 246 µg/mL (≈ 688 µM).

The values above are taken from ChEMBL document CHEMBL4000171, “Structure-activity relationship studies on 1-(2-oxopropyl)indole-5-carboxylic acids acting as inhibitors of cytosolic phospholipase A2α: Effect of substituents at the indole 3-position on activity, solubility, and metabolic stability” (Eur J Med Chem, 2017).
